# Reference: US8492401B2, “Thiazolopyridine sirtuin modulating compounds” (Sirtris Pharmaceuticals, priority 2008, dated 2013)
# Target: T1, SIRT1 (Homo sapiens, UniProt Q96EB6)
# T1 sequence (Q96EB6 1-747): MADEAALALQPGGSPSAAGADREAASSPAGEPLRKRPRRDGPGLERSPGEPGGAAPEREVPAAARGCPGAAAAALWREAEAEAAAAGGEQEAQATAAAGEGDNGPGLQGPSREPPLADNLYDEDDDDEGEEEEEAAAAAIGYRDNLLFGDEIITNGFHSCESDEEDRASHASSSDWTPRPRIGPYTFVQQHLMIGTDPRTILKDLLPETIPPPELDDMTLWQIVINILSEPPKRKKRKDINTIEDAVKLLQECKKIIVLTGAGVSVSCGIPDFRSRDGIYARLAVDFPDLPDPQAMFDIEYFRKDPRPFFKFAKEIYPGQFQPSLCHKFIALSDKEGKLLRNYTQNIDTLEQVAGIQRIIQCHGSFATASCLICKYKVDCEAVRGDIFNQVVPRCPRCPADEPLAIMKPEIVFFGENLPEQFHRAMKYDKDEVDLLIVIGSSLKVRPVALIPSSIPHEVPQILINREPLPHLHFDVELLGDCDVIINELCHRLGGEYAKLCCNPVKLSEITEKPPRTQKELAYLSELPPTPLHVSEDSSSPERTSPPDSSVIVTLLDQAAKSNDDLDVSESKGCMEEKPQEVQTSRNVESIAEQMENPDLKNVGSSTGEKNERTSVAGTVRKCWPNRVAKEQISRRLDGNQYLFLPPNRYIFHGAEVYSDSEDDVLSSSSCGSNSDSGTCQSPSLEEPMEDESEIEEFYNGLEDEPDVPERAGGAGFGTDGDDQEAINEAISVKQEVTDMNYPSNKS
# Experiment: Mass spectrometry based assay to identify modulators (activators) of SIRT1 activity
# Assay type: biochemical
# Conditions: 0.5 μM peptide substrate, 120 μM βNAD+, 10 nM SIRT1, 25 minutes at 25° C.; for EC1.5: SIRT1 activation
# Excerpt: A mass spectrometry based assay was used to identify modulators of SIRT1 activity. The mass spectrometry based assay utilizes a peptide having 20 amino acid residues as follows: Ac-EE-K(biotin)-GQSTSSHSK(Ac)NleSTEG-K(5TMR)-EE-NH2 (SEQ ID NO: 1) wherein K(Ac) is an acetylated lysine residue and Nle is a norleucine. The peptide is labeled with the fluorophore 5TMR (excitation 540 nm/emission 580 nm) at the C-terminus. The sequence of the peptide substrate is based on p53 with several modifications. In addition, the methionine residue naturally present in the sequence was replaced with the norleucine because the methionine may be susceptible to oxidation during synthesis and purification.
# The mass spectrometry assay is conducted as follows: 0.5 μM peptide substrate and 120 μM βNAD^+ is incubated with 10 nM SIRT1 for 25 minutes at 25° C. in a reaction buffer (50 mM Tris-acetate pH 8, 137 mM NaCl, 2.7 mM KCl, 1 mM MgCl2, 5 mM DTT, 0.05% BSA). Test compounds may be added to the reaction as described above. […] After the 25 minute incubation with SIRT1, 10 μL of 10% formic acid is added to stop the reaction. Reactions are sealed and frozen for later mass spec analysis. Determination of the mass of the substrate peptide allows for precise determination of the degree of acetylation (i.e. starting material) as compared to deacetylated peptide (product).
# A control for inhibition of sirtuin activity is conducted by adding 1 μL of 500 mM nicotinamide as a negative control at the start of the reaction (e.g., permits determination of maximum sirtuin inhibition). A control for activation of sirtuin activity is conducted using 10 nM of sirtuin protein, with 1 μL of DMSO in place of compound, to determine the amount of deacetylation of the substrate at a given timepoint within the linear range of the assay. This timepoint is the same as that used for test compounds and, within the linear range, the endpoint represents a change in velocity.
# For the above assay, SIRT1 protein was expressed and purified as follows. […] The protein was expressed by induction with 1 mM IPTG as an N-terminal His-tag fusion protein at 18° C. overnight and harvested at 30,000×g. Cells were lysed with lysozyme in lysis buffer (50 mM Tris-HCl, 2 mM Tris[2-carboxyethyl]phosphine (TCEP), 10 μM ZnCl2, 200 mM NaCl) and further treated with sonication for 10 min for complete lysis. The protein was purified over a Ni-NTA column (Amersham) and fractions containing pure protein were pooled, concentrated and run over a sizing column (Sephadex S200 26/60 global). The peak containing soluble protein was collected and run on an Ion-exchange column (MonoQ). Gradient elution (200 mM-500 mM NaCl) yielded pure protein. This protein was concentrated and dialyzed against dialysis buffer (20 mM Tris-HCl, 2 mM TCEP) overnight. The protein was aliquoted and frozen at −80° C. until further use.
# Sirtuin modulating compounds that activated SIRT1 were identified using the assay described above and are shown below in Table 1. The EC1.5 values for the activating compounds are represented by A (EC1.5≦1 uM), B (EC1.5>1 and ≦10 uM), or C (EC1.5>10 uM). The percent maximum fold activation is represented by A (Fold activation≧300%), B (Fold Activation≧150% and <300%), or C (Fold Activation<150%).
SMILES,FOLD ACT. (percent maximum fold activation),EC1.5
"COCCN1CCN(Cc2cnc3sc(-c4ccccc4NC(=O)c4csc(-c5ccccc5)n4)nc3c2)CC1 [Compound 1, N-(2-(6-((4-(2-methoxyethyl)piperazin-1-yl)methyl)thiazolo[5,4-b]pyridin-2-yl)phenyl)-2-phenylthiazole-4-carboxamide]",A (Fold activation≧300%),A (EC1.5≦1 uM)
"O=C(Nc1ccccc1-c1nc2cc(CN3CCOCC3)cnc2s1)c1csc(-c2ccccc2)n1 [Compound 2, N-(2-(6-(morpholinomethyl)thiazolo[5,4-b]pyridin-2-yl)phenyl)-2-phenylthiazole-4-carboxamide]",A (Fold activation≧300%),A (EC1.5≦1 uM)
"O=C(Nc1ccccc1-c1nc2cc(CN3CCCC3)cnc2s1)c1csc(-c2ccccc2)n1 [Compound 3, 2-phenyl-N-(2-(6-(pyrrolidin-1-ylmethyl)thiazolo[5,4-b]pyridin-2-yl)phenyl)thiazole-4-carboxamide]",B (Fold Activation≧150% and <300%),A (EC1.5≦1 uM)
"COCCCc1sc(-c2ccccc2)nc1C(=O)Nc1ccccc1-c1nc2cc(CN3CCCC3)cnc2s1 [Compound 4, 5-(3-methoxypropyl)-2-phenyl-N-(2-(6-(pyrrolidin-1-ylmethyl)thiazolo[5,4-b]pyridin-2-yl)phenyl)thiazole-4-carboxamide]",B (Fold Activation≧150% and <300%),A (EC1.5≦1 uM)
"COCC#Cc1sc(-c2ccccc2)nc1C(=O)Nc1ccccc1-c1nc2cc(CN3CCCC3)cnc2s1 [Compound 5, 5-(3-methoxyprop-1-ynyl)-2-phenyl-N-(2-(6-(pyrrolidin-1-ylmethyl)thiazolo[5,4-b]pyridin-2-yl)phenyl)thiazole-4-carboxamide]",B (Fold Activation≧150% and <300%),A (EC1.5≦1 uM)
"COCCCc1sc(-c2ccccc2)nc1C(=O)Nc1ccccc1-c1nc2cccnc2s1 [Compound 6, 5-(3-methoxypropyl)-2-phenyl-N-(2-(thiazolo[5,4-b]pyridin-2-yl)phenyl)thiazole-4-carboxamide]",B (Fold Activation≧150% and <300%),B (EC1.5>1 and ≦10 uM)
"COCCN1CCN(CCCc2sc(-c3ccccc3)nc2C(=O)Nc2ccccc2-c2nc3cccnc3s2)CC1 [Compound 7, 5-(3-(4-(2-methoxyethyl)piperazin-1-yl)propyl)-2-phenyl-N-(2-(thiazolo[5,4-b]pyridin-2-yl)phenyl)thiazole-4-carboxamide]",B (Fold Activation≧150% and <300%),A (EC1.5≦1 uM)
"O=C(Nc1ccccc1-c1nc2cccnc2s1)c1nc(-c2ccccc2)sc1CCCN1CCCC1 [Compound 8, 2-phenyl-5-(3-(pyrrolidin-1-yl)propyl)-N-(2-(thiazolo[5,4-b]pyridin-2-yl)phenyl)thiazole-4-carboxamide]",A (Fold activation≧300%),A (EC1.5≦1 uM)
"CC(C)N1CCN(Cc2sc(-c3ccccc3)nc2C(=O)Nc2ccccc2-c2nc3cccnc3s2)CC1 [Compound 9, 5-((4-isopropylpiperazin-1-yl)methyl)-2-phenyl-N-(2-(thiazolo[5,4-b]pyridin-2-yl)phenyl)thiazole-4-carboxamide]",A (Fold activation≧300%),A (EC1.5≦1 uM)
"O=C(Nc1ccccc1-c1nc2cccnc2s1)c1nc(-c2ccccc2)sc1CN1CCOCC1 [Compound 10, 5-(morpholinomethyl)-2-phenyl-N-(2-(thiazolo[5,4-b]pyridin-2-yl)phenyl)thiazole-4-carboxamide]",B (Fold Activation≧150% and <300%),A (EC1.5≦1 uM)
"O=C(Nc1ccccc1-c1nc2cccnc2s1)c1nc(-c2ccccc2)sc1CN1CCCC1 [Compound 11, 2-phenyl-5-(pyrrolidin-1-ylmethyl)-N-(2-(thiazolo[5,4-b]pyridin-2-yl)phenyl)thiazole-4-carboxamide]",C (Fold Activation<150%),B (EC1.5>1 and ≦10 uM)
